The results in this text go back to patent US10441663B2, “Methods for treating cancer” (Bicycle Therapeutics Limited, priority 2016, dated 2019).

Molecules are shown by their SMILES. *1 amine or outer side, *2 acyl side, *3 side chain or, on linkers, in order; H or OH if unused. Where a SMILES comes first, the peptide text is derived from it. Bridges are numbered along the chain shown (N, C = ends). [ ]: non-standard residue; d: D form. The star is where a group is joined. X1 = COc1cc2cc(c1Cl)N(C)C(=O)C[C@H](OC(=O)[C@H](C)N(C)C(=O)CCSSC(C)CCC(=O)*)[C@]1(C)O[C@H]1[C@H](C)[C@@H]1C[C@@](O)(NC(=O)O1)[C@H](OC)/C=C/C=C(\C)C2; 1Nal = N[C@@H](Cc1cccc2ccccc12)C(=O)O; TBMB = c1c(C[*:1])cc(C[*:3])cc1C[*:2]; Tle = CC(C)(C)[C@H](N)C(=O)O; βAla = NCCC(=O)O; Sar = CNCC(=O)O

One data set deals with LU-01-0486 PDX model. Type of data set: in vivo, Mus Musculus. The following applies: 3 or 10 mg/kg. The procedure: The objective of this study was to evaluate the in vivo anti-tumor efficacy of BT1718 in the treatment of MT1-MMP low-expressing LU-01-0486 PDX model in female Balb/C nude mice
Each mouse was inoculated subcutaneously at the right flank with LU-01-0486 of tumor fragment (30 mm^3) for tumor development. The treatments was started when the average tumor volume reaches 164 mm^3.
All the procedures related to animal handling, care and the treatment in the study were performed following the guidance of the Association for Assessment and Accreditation of Laboratory Animal Care (AAALAC). At the time of routine monitoring, the animals were daily checked for any effects of tumor growth and treatments on normal behavior such as mobility, food and water consumption (by looking only), body weight gain/loss (body weights were measured twice weekly), eye/hair matting and any other abnormal effect as stated in the protocol. Death and observed clinical signs were recorded on the basis of the numbers of animals within each subset.
The major endpoint was to see if the tumor growth could be delayed or mice could be cured. Tumor size was measured two times weekly in two dimensions using a caliper, and the volume was expressed in mm^3 using the formula: V=0.5 a×b^2 where a and b are the long and short diameters of the tumor, respectively. The tumor size was then used for calculations of T/C value. […]
TGI was calculated for each group using the formula: TGI (%)=[1−(Ti−T0)/(Vi−V0)]×100; Ti is the average tumor volume of a treatment group on a given day, T0 is the average tumor volume of the treatment group on the day of treatment start, Vi is the average tumor volume of the vehicle control group on the same day with Ti, and V0 is the average tumor volume of the vehicle group on the day of treatment start. […]
A one-way ANOVA was performed to compare tumor volume among groups, and when a significant F-statistics (a ratio of treatment variance to the error variance) was obtained, comparisons between groups were carried out with Games-Howell test. All data were analyzed using Prism. […]

In data set [1] the test system is LU-01-0251 non-small-cell lung carcinoma (NSCLC) PDX model. Put plainly: Efficacy in LU-01-0251 NSCLC PDX model (high MT1-expressing, docetaxel sensitive). Type of data set: in vivo, Balb/C nude mice. An excerpt: The objective of the project is to evaluate the in vivo therapeutic efficacy of test articles in the LU-01-0251 non-small-cell lung carcinoma (NSCLC) PDX model. LU-01-0251 is a high MT1-expressing NSCLC that is docetaxel sensitive.
Each mouse was inoculated subcutaneously at the right flank with certain kind of tumor fragment (30 mm3) for tumor development. The treatments started when the average tumor volume reaches approximately 150-200 mm^3. The test article administration and the animal numbers in each group are shown in Table 40 which details the experimental design.
Treatment was given until the control tumors reached an average of 1000 mm^3.
Before commencement of treatment all animals will be weighed and the tumor volumes will be measured. Since the tumor volume can affect the effectiveness of any given treatment, mice will be assigned into groups using randomized block design based upon their tumor volumes.
The protocol and any amendment(s) or procedures involving the care and use of animals in this study will be reviewed and approved prior to conduct. […] At the time of routine monitoring, the animals will be checked for any effects of tumor growth and treatments on normal behavior such as mobility, food and water consumption, body weight gain/loss (body weights will be measured twice weekly), eye/hair matting and any other abnormal effect. Death and observed clinical signs will be recorded on the basis of the numbers of animals within each subset.
The major endpoint is to see if the tumor growth can be delayed or mice can be cured. Tumor sizes will be measured twice weekly in two dimensions using a caliper and the volume will be expressed in mm^3 using the formula: V=0.5 a×b^2 where a and b are the long and short diameters of the tumor, respectively. […] T-C is calculated with T as the median time (in days) required for the treatment group tumors to reach a predetermined size (e.g., 1.000 mm^3), and C is the median time (in days) for the control group tumors to reach the same size. […]
TGI is calculated for each group using the formula. […]

On to `COc1cc2cc(c1Cl)N(C)C(=O)C[C@H](OC(=O)[C@H](C)N(C)C(=O)CCSSC(C)CCC(=O)NCCC(=O)N(C)CC(=O)N(C)CC(=O)N(C)CC(=O)N(C)CC(=O)N(C)CC(=O)N(C)CC(=O)N(C)CC(=O)N(C)CC(=O)N(C)CC(=O)N(C)CC(=O)N[C@@H](C)C(=O)N[C@H]1CSCc3cc4cc(c3)CSC[C@H](NC(=O)[C@@H](C)NC(=O)[C@H](Cc3cccc5ccccc35)NC(=O)[C@H](CCC(=O)O)NC(=O)[C@H](CC(N)=O)NC(=O)[C@@H](C)NC1=O)C(=O)N[C@@H](CCC(=O)O)C(=O)N[C@@H](CC(=O)O)C(=O)N[C@@H](Cc1ccccc1)C(=O)N[C@@H](Cc1ccc(O)cc1)C(=O)N[C@@H](CC(=O)O)C(=O)N[C@@H](C(C)(C)C)C(=O)N[C@H](C(N)=O)CSC4)[C@]1(C)O[C@H]1[C@H](C)[C@@H]1C[C@@](O)(NC(=O)O1)[C@H](OC)/C=C/C=C(\C)C2` (some centres unmarked) [BT1718] ({X1-βAla}-[Sar][Sar][Sar][Sar][Sar][Sar][Sar][Sar][Sar][Sar]AC[dA]NE[1Nal][dA]CEDFYD[Tle]C-NH2; linker 12-18-25 via TBMB (inferred)), for which, in the data set with LU-01-0486 PDX model, the body weight effect result is given as “no significant effect on body weight” and the tumor growth result is given as “limited inhibition of tumor growth”. For the same molecule, in data set [1] (3 mg/kg biw), the tumor response entry is “tumor stasis”. In data set [1] (10 mg/kg biw), the “relapse after cessation of dosing” value was “lack of relapse” and the tumor response entry is recorded as “tumor eradication”.
